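Briefly, cells in 96-well plates were exposed to five compound concentrations for 48 h, and endpoints were estimated by linear interpolation. At the GI50, growth is halved.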 Activity calls are given as the source filed them. Rule as the data show it: active = GI50 up to about 1.1 µM and inactive = higher.
How the values were obtained:
Test in all cases: NCI-60 cell line screen, 48 h
U-251 = system: U-251
CAKI-1 = system: CAKI-1
LOX IMVI = system: LOX IMVI
SK-OV-3 = system: SK-OV-3
EKVX = system: EKVX
SK-MEL-28 = system: SK-MEL-28
RXF 393 = system: RXF 393
SF-539 = system: SF-539
HOP-62 = system: HOP-62
SN12C = system: SN12C
OVCAR-3 = system: OVCAR-3
Hs-578T = system: Hs-578T
786-0 = system: 786-0
SK-MEL-2 = system: SK-MEL-2
OVCAR-8 = system: OVCAR-8
TK-10 = system: TK-10
BT-549 = system: BT-549
SW-620 = system: SW-620
MDA-N = system: MDA-N
HL-60 = system: HL-60

Measured: GI50

COC(=O)C1=CSC2(S1)C(C(=O)OC)=CSc1c2ss/c1=N\c1ccccc1 (stereo not given)
inactive: U-251 2.4 µM | CAKI-1 2.98 µM | LOX IMVI 1.67 µM | SK-OV-3 2.72 µM | EKVX 4.59 µM | SK-MEL-28 2.38 µM | RXF 393 1.78 µM | SF-539 1.38 µM | HOP-62 2.88 µM | SN12C 1.88 µM | OVCAR-3 3.24 µM | Hs-578T 2.55 µM | 786-0 1.49 µM | SK-MEL-2 2 µM | OVCAR-8 1.81 µM | TK-10 2.7 µM | BT-549 2.74 µM | SW-620 2.51 µM | MDA-N 2.17 µM

CC1OC(OC2C(O)COC(OC3C(C)OC(OC4C(OC(=O)[C@]56CCC(C)(C)C[C@@H]5C5=CCC7[C@@]8(C)C[C@H](O)[C@H](OC9OC(CO)C(O)C(OC%10OC(CO)C(O)C(O)C%10O)C9O)[C@@](C)(CO)[C@@H]8CC[C@@]7(C)[C@]5(C)CC6)OCC(O)C4O)C(O)C3O)C2O)C(O)C(O)C1O (stereo not given in full)
inactive: U-251 17.5 µM | CAKI-1 3.19 µM | LOX IMVI 18 µM | SK-OV-3 15.7 µM | EKVX 12.8 µM | SK-MEL-28 8.75 µM | RXF 393 12.1 µM | SF-539 18.4 µM | HOP-62 14.3 µM | SN12C 10.6 µM | OVCAR-3 14.9 µM | Hs-578T 19.5 µM | 786-0 16.1 µM | SK-MEL-2 19.8 µM | OVCAR-8 17 µM | TK-10 18.8 µM | BT-549 22.4 µM | SW-620 14.5 µM | MDA-N 17.1 µM

CC(C)CCNC(=O)c1ccc(CNC(=O)/C=C/c2cccc(Oc3ccccc3)c2)cc1
inactive: U-251 28.8 µM | CAKI-1 47.1 µM | LOX IMVI 37.2 µM | SK-OV-3 33.1 µM | EKVX 23.1 µM | SK-MEL-28 > 100 µM | RXF 393 18.6 µM | SF-539 11.6 µM | HOP-62 18.7 µM | SN12C 43.7 µM | OVCAR-3 28.4 µM | Hs-578T > 100 µM | 786-0 24 µM | SK-MEL-2 31.3 µM | OVCAR-8 25.9 µM | TK-10 22.6 µM | BT-549 60.1 µM | SW-620 41.4 µM | MDA-N 16.5 µM

COC(=O)C(CNC(=O)/C=C/c1ccc(OC(C)=O)c(OC(C)=O)c1)NC(=O)/C=C/c1ccc(OC(C)=O)c(OC(C)=O)c1 (stereo not given)
inactive: U-251 88.7 µM | CAKI-1 > 100 µM | LOX IMVI > 100 µM | SK-OV-3 57.5 µM | EKVX > 100 µM | SK-MEL-28 > 100 µM | RXF 393 > 100 µM | SF-539 > 100 µM | HOP-62 > 100 µM | SN12C > 100 µM | OVCAR-3 > 100 µM | Hs-578T > 100 µM | 786-0 > 100 µM | SK-MEL-2 > 100 µM | OVCAR-8 > 100 µM | TK-10 > 100 µM | BT-549 > 100 µM | SW-620 > 100 µM | MDA-N > 100 µM

O=C1c2ccccc2-c2[nH]c3cn[nH]c(=O)c3c21
inactive: U-251 > 100 µM | CAKI-1 91.6 µM | LOX IMVI 78.5 µM | SK-OV-3 > 100 µM | EKVX 79.4 µM | SF-539 > 100 µM | HOP-62 82 µM | SN12C > 100 µM | OVCAR-3 > 100 µM | Hs-578T 64.9 µM | 786-0 > 100 µM | HL-60 > 100 µM | SK-MEL-2 47.2 µM | OVCAR-8 > 100 µM | TK-10 > 100 µM | BT-549 > 100 µM | SW-620 > 100 µM | MDA-N 61.4 µM

COc1ccc(NC(=S)c2ccc(CN3CCCCC3)s2)cc1
inactive: U-251 17.1 µM | CAKI-1 27.9 µM | LOX IMVI 18.1 µM | SK-OV-3 16.4 µM | EKVX 18.8 µM | SK-MEL-28 17.3 µM | SF-539 43.9 µM | HOP-62 20.6 µM | SN12C 47 µM | OVCAR-3 33.6 µM | Hs-578T 12.6 µM | 786-0 17.8 µM | HL-60 14.3 µM | SK-MEL-2 19.4 µM | OVCAR-8 17.9 µM | BT-549 17 µM | SW-620 19.4 µM | MDA-N 18.5 µM

NC(=O)c1nnc2c(F)cccc2c1N
inactive: U-251 > 100 µM | CAKI-1 > 100 µM | LOX IMVI 52 µM | SK-OV-3 45.2 µM | EKVX > 100 µM | SF-539 > 100 µM | HOP-62 > 100 µM | SN12C > 100 µM | OVCAR-3 > 100 µM | Hs-578T > 100 µM | 786-0 > 100 µM | HL-60 > 100 µM | SK-MEL-2 > 100 µM | OVCAR-8 > 100 µM | TK-10 > 100 µM | BT-549 58.9 µM | SW-620 27.4 µM | MDA-N 66.5 µM

— ChEMBL document CHEMBL1201862, “PubChem BioAssay data set” (2004)
